Experiments:
[1] = Pharmacokinetic profile after single 30 mg/kg subcutaneous dose in wild-type mice; assay type: in vivo, mouse; details: single s.c. dose 30 mg/kg
Protocol: A full pharmacokinetic profile for selected compounds that have passed multiple screening criteria was obtained in C57BL6 mice. In one study, mice are administered a single subcutaneous injection of anti-miR-17 compound at 30 mg/kg. In another study, mice are administered three subcutaneous injections of anti-miR-17 compound at 39 mg/kg, over a two-month period. In each study, liver and kidney samples are collected at 1 hour, 4 hours, 8 hours, 1 day, 4 days, 7 days, 14 days, 28 days, and 56 days following injections.
(§1) Pharmacokinetic behavior was assessed by administering a single subcutaneous 30 mg/kg dose of RG4326 or tool anti-miR-17 compound to wild-type mice. At one hour, four hours, eight hours, one day, seven days, 14 days, 28 days and 56 days following the single injection, mice were sacrificed and the mean concentration of anti-miR compound in kidney and liver tissue was measured (ug/g) as described above. The area-under-curve (AUC) was calculated for kidney and liver tissue using the formula ug*h/g, where ug is the amount of oligonucleotide in the tissue, h is the timepoint of tissue collection in hours, and g is the weight of the tissue. The ratio of kidney AUC to liver AUC was determined. Kidney tissue was also processed to the miPSA, to determine target engagement for each compound in this study. PSA AUC was calculated using the formula Log2FC*h, where Log2FC is the displacement value, h is the timepoint of tissue collection in hours. Potency in the kidney at day 7 was calculated using the formula Log2FC+g/ug where Log2FC is the displacement value as determined by the miPSA, g is the weight of the kidney tissue, and ug is the amount of anti-miR in the kidney tissue at day seven.

miR-17 = test: microRNA polysome shift assay (miPSA), kidney target engagement; assay type: in vivo, mouse; parameters: miPSA Score Wild Type Mice / miPSA Score PKD Mice / miPSA displacement score (mean): scale not given here; details: for miPSA Kidney AUC (8 hours to 7 days) / Potency Kidney D7: wild-type mice, single s.c. dose 30 mg/kg; for Potency Kidney D7: day 7
Protocol: (§2) In vivo potency was evaluated using the microRNA polysome shift assay (miPSA). This assay was used to determine the extent to which compounds directly engage the miR-17 target in the kidney in normal and PKD mice. The miPSA relies on the principle that active miRNAs bind to their mRNA targets in translationally active high molecular weight (HMW) polysomes, whereas the inhibited miRNAs reside in the low MW (LMW) polysomes. Treatment with anti-miR results in a shift of the microRNA from HMW polysomes to LMW polysomes. Thus, the miPSA provides a direct measurement of microRNA target engagement by a complementary anti-miR (Androsavich et al., Nucleic Acids Research, 2015, 44: e13).
The miPSA was used to assess the potency of each compound, measured by the displacement score, in wild type and JCK mice. Tissue accumulation of anti-miR-17 compound was measured by extraction of compound using liquid-liquid extraction (LLE) and/or solid-phase extraction (SPE), followed by analysis of the identity and concentration of compound using ion-pairing-reversed-phase high performance liquid chromatography coupled with time-of-flight mass spectrometry (IP—RP-HPLC-TOF).
Wild type mice were administered a single dose of 3 mg/kg for the miPSA analysis, and a single dose of 30 mg/kg for the tissue accumulation analysis. JCK mice were administered a single dose of 30 mg/kg for both the miPSA and tissue accumulation analyses. Kidney tissue was collected seven days following the administration of anti-miR-17 compound. […] A higher kidney-to-liver ratio is generally preferred for a disease where the primary site of action is the kidney.
as §2, with “The” for “In vivo potency was evaluated using the”, “(miPSA),” for “(miPSA). This assay”, “identify” for “determine the extent to which”, “compounds that” for “compounds”, “engage” for “engage the”, “miR-17” for “miR-17 target”
For this experiment, the PKD model selected was the JCK model, a mouse model of slowly progressing renal cystic disease associated with the same gene that causes human nephronophthisis type 9. Renal cysts in this mouse develop in multiple regions of the nephron.
C57BL6 mice were treated with a single, subcutaneous dose of 0.3, 3, and 30 mg/kg of RG4326 or tool anti-miR-17 (described in Example 1). JCK mice were treated with a single, subcutaneous dose of 3, 30, and 100 mg/kg of RG4326 or tool anti-miR-17. PBS treatment was used as an additional control. At seven days post-treatment, mice were sacrificed, and kidney tissue was isolated for the miPSA. […] The displacement scores following treatment with RG4326 were greater than the displacement scores following treatment with the tool anti-miR-17 compound. The data for wild-type mice and JCK mice are also shown in FIG. 3A and FIG. 3B, respectively.
as §1, with “PSA AUC was calculated using the formula Log2FC*h, where Log2FC is the displacement value, h is the timepoint of tissue collection in hours. Potency in the kidney at day 7 was calculated using the formula Log2FC+g/ug where Log2FC is the displacement value as determined by the miPSA, g is the weight of the kidney tissue, and ug is the amount of anti-miR in the kidney tissue at day seven.” left out

miR-17 targets = test: miR-17 PD Signature Score in IMCD3 cells (18 genes targeted by miR-17); assay type: cell-based, mouse; details: 24-hour transfection, relative to mock-transfection
Protocol: To test the ability of RG4326 to inhibit miR-17 regulation of endogenous targets, miR-17 target gene de-repression was assessed in vitro in several kidney cell types from normal and PKD mouse kidneys. Mouse kidney collecting duct cells (IMCD3) were treated with 0.3 nM, 1.2 nM, 4.7 nM, 18.8 nM, 75 nM, and 300 nM of RG4326 or a control oligonucleotide, RG5124. Additional control groups included untreated cells and mock-transfected cells (cell treated with transfection reagent only). After a 24-hour transfection period, cells were collected and RNA was extracted. The mRNA levels of 18 genes targeted by miR-17 were measured, and averaged to provide a pharmacodynamic signature score (PD Signature Score), represented as Log2 fold-change (Log2FC) relative to mock-transfection.

[2] = JCK mice, single subcutaneous 3 mg/kg, kidney, seven days
[3] = JCK mice, single subcutaneous 30 mg/kg, kidney, seven days
[4] = JCK mice, single subcutaneous 100 mg/kg, kidney, seven days
[5] = Normal (C57BL6) mice, single subcutaneous 0.3 mg/kg, kidney, seven days
[6] = Normal (C57BL6) mice, single subcutaneous 3 mg/kg, kidney, seven days
[7] = Normal (C57BL6) mice, single subcutaneous 30 mg/kg, kidney, seven days

Compound	KAUC/LAUC Ratio [1]	Kidney AUC (one hour to 56 days) [1]	Liver AUC (one hour to 56 days) [1]	miPSA displacement score (mean) (miR-17; [2])	miPSA displacement score (mean) (miR-17; [3])	miPSA displacement score (mean) (miR-17; [4])	miPSA displacement score (mean) (miR-17; [5])	miPSA displacement score (mean) (miR-17; [6])	miPSA displacement score (mean) (miR-17; [7])	miPSA Kidney AUC (8 hours to 7 days) (miR-17)	Potency Kidney D7 (miR-17)	miR-17 PD Signature Score, Mean Log2FC (miR-17 targets; 0.3 nM)	miR-17 PD Signature Score, Mean Log2FC (miR-17 targets; 1.2 nM)	miR-17 PD Signature Score, Mean Log2FC (miR-17 targets; 4.7 nM)	miR-17 PD Signature Score, Mean Log2FC (miR-17 targets; 18.8 nM)	miR-17 PD Signature Score, Mean Log2FC (miR-17 targets; 75 nM)	miR-17 PD Signature Score, Mean Log2FC (miR-17 targets; 300 nM)	miPSA Score PKD Mice (miR-17; JCK mice, single dose 30 mg/kg, kidney, seven days)	miPSA Score Wild Type Mice (miR-17; wild type mice, single dose 3 mg/kg, kidney, seven days)
5′-CTGCACTGTAAGCACTTTG-3′ (all phosphorothioate, sugars by position and methylation of C not given here; DNA, 2'-MOE and S-cEt sugars) [Tool anti-miR-17, reference compound]	1.0	20711 µg·h/g	20275 µg·h/g	0.97	1.67	2.08	1.51	2.05	2.77	296 Log2FC * h	0.047 Log2FC * g/ug								
COC1C(OP(=O)(S)OC[C@H]2O[C@@H](n3cnc4c(N)ncnc43)C(F)C2OP(=O)(S)OC[C@H]2O[C@@H](n3ccc(N)nc3=O)C(F)C2OP(=O)(S)OC[C@H]2O[C@@H](n3ccc(=O)[nH]c3=O)C(F)C2OP(=O)(S)OC[C@H]2O[C@@H](n3ccc(=O)[nH]c3=O)C(OC)C2OP(=O)(S)OC[C@]23O[C@@H](n4ccc(=O)[nH]c4=O)C(O[C@H]2C)C3OP(=O)(S)OC[C@]23O[C@@H](n4cnc5c(=O)[nH]c(N)nc54)C(O[C@H]2C)C3O)[C@@H](COP(=O)(S)OC2C3O[C@@H](C)[C@]2(COP(=O)(S)OC2C4O[C@@H](C)[C@]2(CO)O[C@H]4n2cnc4c(N)ncnc42)O[C@H]3n2cnc3c(=O)[nH]c(N)nc32)O[C@H]1n1ccc(N)nc1=O (stereo in doubt) [RG4326, ASGSCMAFCFUFUMUSGS]	4.4	5347 µg·h/g	1206 µg·h/g	1.63	2.58	2.73	2.29	2.91	3.19	463 Log2FC * h	0.351 Log2FC * g/ug	−0.075 Log2FC	−0.067 Log2FC	0.027 Log2FC	0.272 Log2FC	0.369 Log2FC	0.373 Log2FC	2.65	2.63
ASCSAMAFUFGFCMASCS [RG5124, reference compound]												−0.083 Log2FC	−0.103 Log2FC	−0.097 Log2FC	−0.108 Log2FC	−0.124 Log2FC	−0.065 Log2FC		
